# Laboratory results as given in patent US9072729B2, “Method for treating fibrosis and cancer with imidazolium and imidazolinium compounds” (Agency for Science, Technology and Research, priority 2008, dated 2015).
# What was measured:
# HepG2 cells = test: Cell based caspase 3/7 and LDH assays, HepG2; design: species or system human; conditions: HepG2, 6 hr
# Experimental: FIG. 22. […] HLE or HepG2 cells were incubated with DBZIM of various concentrations for 6 hr, and assayed for caspase 3/7 activity and LDH releasing (expressed as % toxicity). DBZIM induced apoptosis as characterized by annexin V staining using flow cytometer in HLE (E) and HepG2 (F). Scatter plot and histogram gave the representative information on the cell population distribution while bar graphs quantified the percentage of apoptotic cells from the histogram. HLE and HepG2 cells were treated by DBZIM of various concentrations for 24 hr before harvesting for annexin V staining and flow cytometric analysis.
# Capspase 3/7 activity and lactate dehydrogenase (LDH) release were measured by Fluorometric assays (Promega Corp., WI, USA). The HCC cells were cultured in 96-well plate and treated with DBZIM of various concentrations for 6 hr before assays. For caspase 3/7 assay, medium was removed and substrate buffer was added to lyse the cell and react with caspase 3/7 to give rise to fluorescence signal which was read at Ex=485 nm and Em=530 nm on a Tecan Safire II plate reader after 1 hr incubation. The caspase 3/7 activity of sample cells with the compound treatment was expressed as relative fold change after normalizing to the control cells. The LDH assay (indicative of membrane integrity) was performed using a Kit from Promega Corp according to manufactor's instructions.
# [1] = test system: cytochrome C in HLE cells; test: Western blot of cytochrome c release from mitochondria to cytosol; type: cell-based, human; conditions: 1.5 mM, 24 hr
# Experimental: FIG. 23. (A). […] HLE cells were grown in a T75 flask and treated with DBZIM for 24 hr. The cells were then lysed and cytoplasmic protein was collected for assaying caspase 8, 9 and 3 using kits from Biovision. The data was normalized against the vehicle control. (B). […] HLE cells were treated by DBZIM of 1.5 mM for 24 hr. Cytosolic and mitochondria protein fractions were collected using a kit from Biovision. 15 μg of each protein was resolved in 4-12% gradient PAGE-SDS gel. The target proteins were recognized by antibody of cytochrome C, and visualized by the ECL method. […]
# Protein extracts were prepared by lysing cell pellet in RIPA buffer (Pierce, Ill., USA) for total protein extract, or in NE-PER reagent from Pierce (Pierce, Ill., USA) for nuclear and cytoplasmic fractions, or in a Kit from BioVision (CA, USA) for mitochondria and cytosol fractions. Protein content was quantified using BCA Kit (Pierce, Ill., USA). […] The membrane was then probed with primary antibodies against Bcl-XL, Bak, Bcl-2α, Bax (Lab Vision Corp., CA, USA), survivin, xIAP, cIAP (R&D systems Inc., MN, USA), c-Jun, c-Fos, JunB, JunD, Fra-1, Fra-2 (Santa Cruz Biotechnology, CA, USA) respectively, and detected by horseradish peroxidase-conjugated secondary antibody (Santa Cruz Biotechnology, CA, USA). Protein bands were recorded on X-ray film by reacting with ECL chemiluminescence reagents (Amersham Biosciences, NJ, USA). […]
# H1299 = test: Proliferation assay (MTS), lung cancer cell line; type: cell-based; conditions: Homo sapiens, NCI-H1299, 72 h, determined at day 3
# Experimental: Proliferation of Glioma cell lines: U87 MG and C6 under the treatment of DBZIM was examined using 3-(4,5-dimethylthiazol-2-yl)-5-(3-carboxymethoxyphenyl)-2-(4-sulfophenyl)-2H-tetrazolium (MTS) based proliferation assay kit (Promega, Wis., USA). MTS reagent was added to the control and treated cells (after 48 hr) directly and the absorbance signal was read at 490 nm using a Tecan Safire II plate reader.
# The IC50 value (determined at day 3) was 50 μM for H1299 (lung cancer); 50 μM for MCF-7 (breast cancer), and 40 μM for AGS gastric cancer at day 3 (Table 3).
structure (smiles),measurement,setting,value
"[Br-].c1ccc(Cn2cc[n+](Cc3ccccc3)c2)cc1 [DBZIM, 1,3-bisbenzylimidazolium bromide]",LDH release,HepG2 cells,least affected
same,caspase 3/7 activity,HepG2 cells,enhanced
same,release of cytochrome C from the mitochondria to the cytosol,[1],minimal release
same,IC50,H1299,50 µM
